Reference: patent publication US20230270692A1, “COMPOUNDS FOR CHRONIC DISORDERS” (Pillai Universal LLC, priority 2020, published 2023)

Experiments:
[1] = tested on: Class I HDAC (HDAC1, HDAC2, HDAC3, HDAC8); assay: Class I HDAC expression/inhibition by western blotting in PANC cells; assay type: cell-based, Human
Experimental: Class I HDAC expression during pancreatic tumorigenesis was next examined. Briefly different concentration of Compound I were added and incubated for 24 h. […] Inhibition of Class I HDACs is associated with the upregulation of histone H3 acetylation and p21 mRNA and protein expression which have associated with the anti-proliferative activity. It has also been reported that HDAC6 functions as a α-tubulin deacetylase, modulating tubulin stability. Because α-tubulin and histone H3 are mutual downstream targets of HDACs, the relationship between protein expression and function of molecules was further examined. The effects of Compound I on histone H3 acetylation in PANC cells using western blot analysis was studied.

[2] = tested on: HUMSCs; assay: Neuronal differentiation of human umbilical cord stem cells; assay type: cell-based
Experimental: After treatment at 72 h, the ratio of neuron-like cells reached high, with the cell bodies contracted and the protuberances lengthened further. The MSCs retained this morphology for the duration of the induction.

[3] = tested on: panel of human normal cell lines; assay: MTT cytotoxicity of anticancer agents on normal cell lines, alone and with Compound I; details: combination treatment
Experimental: The cytotoxicity of anticancer agents was studied using a panel of human normal cell lines alone and with the combination of Compound I of the present invention. The cytotoxicity effect was determined by MTT assay. The following cell lines were used: Human epidermal keratinocytes cells (HaCaT), Human dermal fibroblast (HDF), Human bone marrow mesenchymal stem cells (HBMSCs), Human normal hepatocytes cells (THLE2), Human cardiac cells (AC-16), Human intestinal epithelial cells (HIEC-6), Human neuronal cells (SHSY-5Y), Human vascular Endothelial cells (HuVECs), Human lung epithelial cells (Calu-3), Human lung fibroblast (MRC 5).
Next, the cells were treated with anticancer agents in combination with Compound I of the present invention.

[4] = tested on: PANC-1 xenograft; assay: PANC-1 xenograft mouse model; assay type: in vivo
Experimental: Study Design: A PANC-1 xenograft mouse model was carried out according to the experimental design described in FIG. 21A. Tumor volume was monitored over a 30-day period upon administration of PBS alone (vehicle control), 25 mg/kg gemcitabine, and 10 mg/kg Compound I.

[5] = tested on: lung cancer stem cells; assay: Targeting lung cancer stem cells
Text: Compound I is orally bioavailable, multi-tyrosine-kinase inhibitor with 120 target proteins that induces apoptosis and suppresses the invasiveness of lung cancer stem cells with no toxicity to normal cells. There were no signs of discomfort or any cardiovascular or respiratory disorders observed in animals after the administration throughout the study period.

[6] = tested on: SARS-CoV-2; assay: microbe, parasite or virus in culture; assay type: cell-based
[7] = tested on: cytotoxic cells, macrophages, NK cell and DC; assay: Immune response
Text: Compound I has the ability to activate CD4+ helper […] and generates an immune response in the body to protect against viral infections, Specifically, Compound I increases the number and activity of cytotoxic cells and promotes the activation of macrophages NK cell and DC which facilitate APC to CD4+ and CD8+ through capture, internalization, processing and presentation of antigens via MHC class I and II molecules.

[8] = tested on: cytokines and chemokines in the lungs; assay: Xenograft stage 4 metastasized breast cancer animal model, lung cytokines and pathology; assay type: in vivo
Text: In a xenograft stage 4 metastasized breast cancer animal model, Compound I decreased production of cytokines (tumor necrosis factor alpha [TNF-α] and interleukin-6 [IL6]) and chemokines (CXCL10, CCL2, CCL3, CCL5), and were correlated with migration of Natural Killer cells and macrophages and observed in the lungs.

[9] = Pharmacokinetics and tissue distribution in nude mouse; assay type: in vivo
Experimental: The pharmacokinetics and toxicity of Compound I was studied in vivo in a nude mouse model.
Tissue-to-plasma ratios were taken of Compound I in animals at 1, 2, 4, 24 h after administration. At 60 min, the highest levels of Compound I were found in the lungs, brain, stomach, liver, mammary gland, and small intestine, all of which are highly perfused organs followed by spleen and heart. Up to 72 h, Compound I was detected in most organs, but not in the femur and kidney. The ratios in most organs continued to increase up to 4 h. […] There was no change in body weight monitored for a 7-day period after drug administrations.
As explained above, a pharmacokinetic study investigated the concentrations of Compound I at different time intervals after either oral administration or intravenous injection. […] In the gastrointestinal tract, a significant amount of Compound I accumulated in the stomach, implying that Compound I may be absorbed through stomach tissue and distributed throughout the body. […] Collectively, our current findings will provide a more complete understanding of the biological actions of Compound I in vivo.

[10] = in vitro; details: African green monkey
[11] = tested on: xenograft nude mice models (triple-negative breast cancer, pancreatic, liver, colon cancer); assay: In vivo metastasis / stage IV tumor studies in xenograft nude mice versus standard drugs; details: mice, after 9 months since administration
[12] = treatment group compared to control group

Q: Which “protein expression of Class I HDAC” value ([1]; 24 h, western blotting, vs control p<0.05) does the source give for `COc1cc(/C=C/C(=O)/C=C/C=C/c2cc(OC)c(O)c(OC)c2)cc(OC)c1` [Compound I] here?
A: decreased in a dose-dependent manner

Q: What about the “inhibition of HDAC1, HDAC2, HDAC3 and HDAC8” value ([1]; PANC cells) of the same compound?
A: significantly inhibited

Q: What about the “Neuronal cell type formation” value [2] of the same compound?
A: induced

Q: What about the “effect on toxicity induced by anticancer agents in normal cells” value [3] of the same compound?
A: reduces the toxic effect induced by anticancer agents

Q: What about the imaging studies ([4]; 10 mg/kg) of the same compound?
A: no detectable tumor

Q: And the tumor volume ([4]; day 5 to day 30, 25 mg/kg gemcitabine, 10 mg/kg Compound I)?
A: decrease

Q: What about the survival ([4]; mouse, in vivo) of the same compound?
A: improved survival

Q: What about the “effect on lung cancer stem cells” value [5] of the same compound?
A: induces apoptosis and inhibits metastasis without harming the normal cells

Q: What about the “reduction in viral RNA in supernatant and cell pellets” value ([6]; 1 μM, at 48 h, compared to control samples) of the same compound?
A: 99%

Q: What about the “viral RNA in supernatant and cell pellets” value ([6]; 11 μM (figure legend)) of the same compound?
A: reduction in viral RNA

Q: What about the IC50 ([6]; Severe acute respiratory syndrome coronavirus 2, Vero cells, MOI 0.1, read-out: IC50 (inhibition of virus yield)) of the same compound?
A: 1 µM

Q: And the “viral load measured by nucleoprotein expression” value ([6]; Vero cells, 48 h p.i., immunofluorescence)?
A: substantially reduced

Q: And the “reduction in cell-associated viral RNA” value ([6]; at 24 h)?
A: 99%

Q: What about the “reduction in viral RNA present in the supernatant” value ([6]; at 24 h, compared to vehicle DMSO) of the same compound?
A: 100%

Q: What about the viral material ([6]; by 36 h) of the same compound?
A: effective loss of essentially all viral material

Q: What about the “number and activity of cytotoxic cells” value [7] of the same compound?
A: increases

Q: And the lung histopathology ([8]; by day 7)?
A: normal lung pathology without any pneumonitis observed

Q: What about the “production of cytokines (TNF-α, IL6) and chemokines (CXCL10, CCL2, CCL3, CCL5)” value ([8]; in vivo) of the same compound?
A: decreased

Q: What about the Toxicity ([9]; 10 mg/kg IV) of the same compound?
A: No toxicity was observed

Q: What about the “tissue-to plasma ratio in the hippocampus and brain” value ([9]; 1, 2, and 24 h after dosing) of the same compound?
A: increased significantly and continuously

Q: And the body weight ([9]; 7-day period after administration)?
A: no change

Q: And the tissue distribution ([9]; intravenous administration)?
A: widely distributed in several tissues

Q: What about the “absorbed or distributed to the vital organs” value ([9]; mouse, in vivo) of the same compound?
A: approximately 98%

Q: And the “excreted in either urine or feces” value ([9]; mouse, in vivo)?
A: less than 2%

Q: What about the “time Compound I was detected in most organs” value ([9]; not in the femur and kidney) of the same compound?
A: Up to 72 h

Q: And the “signs of discomfort, cardiovascular or respiratory disorders” value ([9]; throughout the study period)?
A: No signs of discomfort or any cardiovascular or respiratory disorders were observed

Q: And the “increase in the area under the curve (AUC)” value [9, 12]?
A: 28 fold

Q: What about the “increase in the maximum plasma concentration (Cmax)” value [9, 12] of the same compound?
A: 29 fold

Q: What about the CC50 [10] of the same compound?
A: > 15 µM

Q: And the relapse of disease [11]?
A: no relapse of disease
